Patent US12263155B2, “Combinations of monoamine oxidase inhibitors and serotonin receptor agonists and their therapeutic use” (Remedi, Inc., priority 2022, dated 2025)

Assays:
[1] = Phase 1 single dose escalation pharmacokinetics; details: for Clast / Cmax/Dose / Tlast / % AUCextrap / AUCinf/Dose / kel / AUC(0-t): mean; for Cmax / Tmax / concentration at 24 h / AUC(0-t) / AUC(0-inf) / CL/F / Vd/F / half-life: male, human, plasma, po
Method: Methods: The trial was a Phase 1, single center, double-blind, placebo-controlled, sequential group, acute dose escalation study of the safety and pharmacokinetics of seven (7) CX157 dose levels in healthy male volunteers. Each of the seven (7) dose groups consisted of six (6) subjects, with the exception of cohort 2 (CX157 10 mg or placebo) which enrolled only five (5) subjects. Within each dose group, four (4) subjects were randomized to CX157 and two (2) subjects to placebo. Subjects were normal healthy volunteers confined to the study center for approximately 4 days, beginning approximately 16 hours before exposure to study drug and ending approximately 48 hours after exposure to study drug. Safety and tolerability was assessed for each dose group by the Principal Investigator before advancing to the next scheduled dose group. CX157 was administered as a fully solubilized microemulsion in Labrasol™
Plasma samples for the pharmacokinetic analysis of CX157 were obtained at predose (30 minutes prior to dosing), 10, 20, 30, 60 and 90 minutes, 2, 4, 8, 12, 16, 24, 36 and 48 hours after dosing. […] FIG. 11 details the plasma concentrations of CX157 (in ng/mL) of subjects for each of the seven dose groups, wherein the dosage amounts of CX157 administered to the subjects were 5 mg, 10 mg, 15 mg, 20 mg, 40 mg, 80 mg, and 120 mg.
Formulation: Each natural/transparent Licaps® size 0 hard gelatin capsule contains 5 mg or 10 mg CX157 in Labrasol™; each capsule is banded with a green gelatin band that is comprised of gelatin NF and polysorbate-80 NF. CX157 Liquid Filled Capsules are packaged in white, opaque, high density polyethylene (HDPE) bottles with screw-top polypropylene child resistant caps. Each bottle contains 30 capsules per bottle. CX157 Liquid Filled Capsules, 5 mg and 10 mg are stored long-term at controlled room temperature conditions [i15° C. to 30° C. (59° F. to 86° F.)].

MAO-A = target: T1, MAO-A (Homo sapiens, UniProt P21397); assay: Phase I 14-day twice-daily pharmacodynamics; type: in vivo; parameters: administered for 14 days compared to placebo in healthy male and female volunteers; from tissue; host or cells: in vivo, healthy volunteers; details: repeated administration 10, 20, 40 mg twice daily
T1 sequence (P21397 1-527): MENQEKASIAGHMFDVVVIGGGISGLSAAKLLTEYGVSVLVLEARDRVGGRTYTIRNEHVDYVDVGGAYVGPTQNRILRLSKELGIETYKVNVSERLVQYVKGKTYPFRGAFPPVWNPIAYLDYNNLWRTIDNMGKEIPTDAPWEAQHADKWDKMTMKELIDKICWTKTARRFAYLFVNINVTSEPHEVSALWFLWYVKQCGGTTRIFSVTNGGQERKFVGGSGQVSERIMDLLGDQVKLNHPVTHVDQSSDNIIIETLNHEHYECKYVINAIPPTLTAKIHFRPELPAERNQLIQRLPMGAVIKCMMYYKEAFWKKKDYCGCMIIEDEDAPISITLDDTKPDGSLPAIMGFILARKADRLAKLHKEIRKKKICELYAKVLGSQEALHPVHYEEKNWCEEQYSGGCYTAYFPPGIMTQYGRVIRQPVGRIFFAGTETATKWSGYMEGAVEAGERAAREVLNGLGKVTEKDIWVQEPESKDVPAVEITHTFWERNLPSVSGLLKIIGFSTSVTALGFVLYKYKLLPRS
Method: Methods: The study was a Phase I, single-center, randomized, parallel-group, multiple-dose, placebo-controlled, pharmacodynamic, pharmacokinetic and safety study in healthy volunteers. To obtain 24 enrolled subjects, screening procedures and inclusion/exclusion criteria were evaluated for 54 subjects during a variable screening period of up to 28 days.

[2] = healthy males, single oral 5 mg
[3] = healthy males, single oral 10 mg
[4] = healthy males, single oral 15 mg
[5] = healthy males, single oral 20 mg
[6] = healthy males, single oral 40 mg
[7] = healthy males, single oral 80 mg

`O=S1(=O)c2ccc(F)cc2Oc2cc(OCC(F)(F)F)ccc21` [CX157, 3-fluoro-7(2,2,2-trifluorethoxy)phenoxathiine-10,10-dioxide] gave a Clast [1, 2] of 0.15 ng/mL, a Cmax/Dose [1, 2] of 87 and a Tlast [1, 2] of 17 h. The “% AUCextrap” value [1, 3] was 6.2%, the AUCinf/Dose [1, 3] was 906 and the Clast [1, 3] was 0.2 ng/mL. It also gave a Cmax/Dose [1, 3] of 182, a Tlast [1, 3] of 40 h and a kel [1, 3] of 0.0371 h⁻¹. The “% AUCextrap” value [1, 4] was 5%, the AUCinf/Dose [1, 4] was 673 and the Clast [1, 4] was 0.38 ng/mL. The Cmax/Dose [1, 4] was 212, the Tlast [1, 4] was 45 h and the kel [1, 4] was 0.0529 h⁻¹. The “% AUCextrap” value [1, 5] was 3.1%, the AUCinf/Dose [1, 5] was 701 and the Clast [1, 5] was 0.24 ng/mL. It also gave a Cmax/Dose [1, 5] of 251, a Tlast [1, 5] of 48 h and a kel [1, 5] of 0.0488 h⁻¹. For the same compound, the “% AUCextrap” value [1, 6] was 3.3%, the AUCinf/Dose [1, 6] was 619 and the Clast [1, 6] was 0.48 ng/mL. For the same compound, the Cmax/Dose [1, 6] was 234, the Tlast [1, 6] was 48 h and the kel [1, 6] was 0.0459 h⁻¹. The “% AUCextrap” value [1, 7] was 5.2%, the AUCinf/Dose [1, 7] was 720 and the Clast [1, 7] was 1.9 ng/mL. The Cmax/Dose [1, 7] was 232, the Tlast [1, 7] was 48 h and the kel [1, 7] was 0.0456 h⁻¹. The Cmax ([1]; 5 mg) was 5.8 ng/mL, the Tmax ([1]; 5 mg) was 0.75 h and the concentration at 24 h ([1]; 5 mg) was 0.14 ng/mL. For the same compound, the AUC(0-t) ([1]; 5 mg, AUC0-24, healthy males, single oral 5 mg) was 21.6 ng·h/mL, the AUC(0-t) ([1]; 5 mg, AUClast, healthy males, single oral 5 mg) was 16.5 ng·h/mL and the AUC(0-inf) ([1]; 10 mg) was 102 ng·h/mL. The CL/F ([1]; 10 mg) was 19.7 mL/min/kg, the Cmax ([1]; 10 mg) was 20.8 ng/mL and the Tmax ([1]; 10 mg) was 1.17 h. For the same compound, the Vd/F ([1]; 10 mg) was 33.3 L/kg, the concentration at 24 h ([1]; 10 mg) was 0.37 ng/mL and the half-life ([1]; 10 mg) was 18.9 h. It also gave an AUC(0-t) ([1]; 10 mg, AUC0-24, healthy males, single oral 10 mg) of 63 ng·h/mL, an AUC(0-t) ([1]; 10 mg, AUC0-48, healthy males, single oral 10 mg) of 96 ng·h/mL and an AUC(0-t) ([1]; 10 mg, AUClast, healthy males, single oral 10 mg) of 69 ng·h/mL. The AUC(0-inf) ([1]; 15 mg) was 129 ng·h/mL, the CL/F ([1]; 15 mg) was 30.2 mL/min/kg and the Cmax ([1]; 15 mg) was 42.2 ng/mL. For the same compound, the Tmax ([1]; 15 mg) was 0.88 h, the Vd/F ([1]; 15 mg) was 33.7 L/kg and the concentration at 24 h ([1]; 15 mg) was 1 ng/mL. For the same compound, the half-life ([1]; 15 mg) was 13.3 h, the AUC(0-t) ([1]; 15 mg, AUC0-24, healthy males, single oral 15 mg) was 107 ng·h/mL and the AUC(0-t) ([1]; 15 mg, AUC0-48, healthy males, single oral 15 mg) was 129 ng·h/mL. For the same compound, the AUC(0-t) ([1]; 15 mg, AUClast, healthy males, single oral 15 mg) was 122 ng·h/mL, the AUC(0-inf) ([1]; 20 mg) was 154 ng·h/mL and the CL/F ([1]; 20 mg) was 26.5 mL/min/kg. For the same compound, the Cmax ([1]; 20 mg) was 56.1 ng/mL, the Tmax ([1]; 20 mg) was 0.75 h and the Vd/F ([1]; 20 mg) was 32.9 L/kg. The concentration at 24 h ([1]; 20 mg) was 0.74 ng/mL, the half-life ([1]; 20 mg) was 14.4 h and the AUC(0-t) ([1]; 20 mg, AUC0-24, healthy males, single oral 20 mg) was 139 ng·h/mL. It also gave an AUC(0-t) ([1]; 20 mg, AUC0-48, healthy males, single oral 20 mg) of 149 ng·h/mL, an AUC(0-t) ([1]; 20 mg, AUClast, healthy males, single oral 20 mg) of 149 ng·h/mL and an AUC(0-inf) ([1]; 40 mg) of 321 ng·h/mL. It also gave a CL/F ([1]; 40 mg) of 29.9 mL/min/kg, a Cmax ([1]; 40 mg) of 123 ng/mL and a Tmax ([1]; 40 mg) of 0.83 h. The Vd/F ([1]; 40 mg) was 38.1 L/kg, the concentration at 24 h ([1]; 40 mg) was 1.4 ng/mL and the half-life ([1]; 40 mg) was 15.6 h. The AUC(0-t) ([1]; 40 mg, AUC0-24, healthy males, single oral 40 mg) was 291 ng·h/mL, the AUC(0-t) ([1]; 40 mg, AUC0-48, healthy males, single oral 40 mg) was 309 ng·h/mL and the AUC(0-t) ([1]; 40 mg, AUClast, healthy males, single oral 40 mg) was 309 ng·h/mL. It also gave an AUC(0-inf) ([1]; 80 mg) of 772 ng·h/mL, a CL/F ([1]; 80 mg) of 25.3 mL/min/kg and a Cmax ([1]; 80 mg) of 245 ng/mL. The Tmax ([1]; 80 mg) was 1 h, the Vd/F ([1]; 80 mg) was 33.5 L/kg and the concentration at 24 h ([1]; 80 mg) was 5.5 ng/mL. It also gave a half-life ([1]; 80 mg) of 15.3 h, an AUC(0-t) ([1]; 80 mg, AUC0-24, healthy males, single oral 80 mg) of 647 ng·h/mL and an AUC(0-t) ([1]; 80 mg, AUC0-48, healthy males, single oral 80 mg) of 730 ng·h/mL. The AUC(0-t) ([1]; 80 mg, AUClast, healthy males, single oral 80 mg) was 730 ng·h/mL and the “pharmacodynamic activity: MAO-A activity” value (MAO-A) was “inhibits MAO-A activity”.
